A value given as a limit tells only on which side of the number the result lay.

One data set relates to MCF7. Put plainly: Cytotoxicity against human MCF7 cells after 96 hrs by MTA reduction assay. The following applies: MCF7, 96 h. The data set is classed as functional, cell-based.
Data set [1] is described as follows: Cytotoxicity against human MCF10A cells after 96 hrs by MTA reduction assay. It counts as ADME, cell-based. To be noted: MCF-10A.
Data set [2] in a line: Selectivity ratio of IC50 for human MCF10A cells to IC50 for human MCF7 cells. The following applies: MCF10A cells versus MCF7 cells, read-out: Ratio IC50. The data set is classed as ADME, cell-based, MCF-10A.
Data set [3] has as its target Lysine-specific histone demethylase 1A (Homo sapiens) (UniProt O60341). Description: Inhibition of N-terminal His6-tagged full length human LSD1 expressed in Escherichia coli BL21 (DE3) using H3K4me2 (1 to 21 amino acids) as substrate assessed as production of H2O2 at 1 uM by luminol-dependent chemiluminescence assay relative to control.
In data set [4] the target is Histone deacetylase (Homo sapiens) (UniProt Q13547+O15379+Q9UBN7+Q92769+Q9UQL6+Q8WUI4+Q9BY41+Q96DB2+P56524+Q9UKV0+Q969S8). Description: Inhibition of HDAC in human HeLa cells using Fluor de Lys as substrate at 1 uM by fluorescence assay relative to control. The data set is classed as cell-based.

`Cc1ccc(CNCCCCNCCCCCC(=O)NCc2ccc(C(=O)Nc3ccccc3N)cc2)cc1`: the 50% inhibitory concentration (IC50) is 0.9 µM in the data set on MCF7 and 24 µM in data set [1]. The selectivity ratio in data set [2] is > 25.
As to `C/N=C(\NC)NCCCNCCCNCCCN/C(=N/C)NC`, the inhibition in data set [3] stood at 85.1%.
The compound `CN(C)c1ccc(CN(CCCNCCCCN)C(=O)CCCCC(=O)NO)cc1` yielded an inhibition in data set [4] of 60%.

What is called IC50 is the concentration that inhibits the measured activity by half. What is called inhibition is the share of the control response that was lost under treatment.

Values taken from ChEMBL document CHEMBL3217735, “Polyamine-based small molecule epigenetic modulators” (Medchemcomm, 2012).
